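Exposure lasted 48 hours, with cells grown in 96-well plates and compounds tested at five concentrations. GI50 is the concentration that inhibits growth by half.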 Active and inactive are the calls of the source. No stated cut-off is given here; in the data, active = GI50 up to about 1.1 µM and inactive = higher.
Experiments:
Assay in all cases: inhibition of tumour cell growth, NCI panel, 48 h
SW-620 = tested on: SW-620
NCI-H522 = tested on: NCI-H522
NCI-H23 = tested on: NCI-H23
U-251 = tested on: U-251
DU-145 = tested on: DU-145
UACC-257 = tested on: UACC-257
MDA-MB-231 = tested on: MDA-MB-231
CCRF-CEM = tested on: CCRF-CEM
SK-OV-3 = tested on: SK-OV-3
SF-295 = tested on: SF-295
NCI/ADR-RES = tested on: NCI/ADR-RES
OVCAR-3 = tested on: OVCAR-3
HCC 2998 = tested on: HCC 2998
HL-60 = tested on: HL-60
A498 = tested on: A498
OVCAR-4 = tested on: OVCAR-4
UACC-62 = tested on: UACC-62
TK-10 = tested on: TK-10
Hs-578T = tested on: Hs-578T
IGROV-1 = tested on: IGROV-1
Malme-3M = tested on: Malme-3M
KM12 = tested on: KM12
ACHN = tested on: ACHN
RXF 393 = tested on: RXF 393
MOLT-4 = tested on: MOLT-4
786-0 = tested on: 786-0
SK-MEL-28 = tested on: SK-MEL-28
PC-3 = tested on: PC-3
HCT-116 = tested on: HCT-116
NCI-H226 = tested on: NCI-H226
SK-MEL-5 = tested on: SK-MEL-5
UO-31 = tested on: UO-31
SR = tested on: SR
BT-549 = tested on: BT-549
SF-268 = tested on: SF-268
HOP-62 = tested on: HOP-62
MCF7 = tested on: MCF7
COLO 205 = tested on: COLO 205
OVCAR-8 = tested on: OVCAR-8
SN12C = tested on: SN12C
MDA-N = tested on: MDA-N
A549 = tested on: A549
HOP-92 = tested on: HOP-92
SNB-19 = tested on: SNB-19
K562 = tested on: K562
RPMI-8226 = tested on: RPMI-8226
SF-539 = tested on: SF-539
NCI-H460 = tested on: NCI-H460
EKVX = tested on: EKVX
SK-MEL-2 = tested on: SK-MEL-2
LOX IMVI = tested on: LOX IMVI
MDA-MB-435 = tested on: MDA-MB-435
CAKI-1 = tested on: CAKI-1
HT-29 = tested on: HT-29
HCT-15 = tested on: HCT-15
T47D = tested on: T47D
SNB-75 = tested on: SNB-75
M14 = tested on: M14

COc1ccc(NC(=O)CC(=O)N2N=C(C)C(/N=N\c3ccc(S(=O)(=O)c4ccc(/N=N/C5C(=O)N(C(=O)CC(=O)Nc6ccc(OC)cc6)N=C5C)cc4)cc3)C2=O)cc1 (stereo not drawn)
GI50 (SW-620): > 100 µM (inactive) | GI50 (NCI-H522): > 100 µM (inactive) | GI50 (NCI-H23): > 100 µM (inactive) | GI50 (U-251): > 100 µM (inactive) | GI50 (DU-145): > 100 µM (inactive) | GI50 (UACC-257): > 100 µM (inactive) | GI50 (MDA-MB-231): > 100 µM (inactive) | GI50 (CCRF-CEM): > 100 µM (inactive) | GI50 (SK-OV-3): > 100 µM (inactive) | GI50 (SF-295): > 100 µM (inactive) | GI50 (NCI/ADR-RES): > 100 µM (inactive) | GI50 (OVCAR-3): > 100 µM (inactive) | GI50 (HCC 2998): > 100 µM (inactive) | GI50 (HL-60): > 100 µM (inactive) | GI50 (A498): > 100 µM (inactive) | GI50 (OVCAR-4): > 100 µM (inactive) | GI50 (UACC-62): > 100 µM (inactive) | GI50 (TK-10): > 100 µM (inactive) | GI50 (Hs-578T): 25 µM (inactive) | GI50 (IGROV-1): 55.1 µM (inactive) | GI50 (Malme-3M): > 100 µM (inactive) | GI50 (KM12): > 100 µM (inactive) | GI50 (ACHN): > 100 µM (inactive) | GI50 (RXF 393): 31.3 µM (inactive) | GI50 (MOLT-4): > 100 µM (inactive) | GI50 (786-0): > 100 µM (inactive) | GI50 (SK-MEL-28): > 100 µM (inactive) | GI50 (PC-3): > 100 µM (inactive) | GI50 (HCT-116): > 100 µM (inactive) | GI50 (NCI-H226): > 100 µM (inactive) | GI50 (SK-MEL-5): 63 µM (inactive) | GI50 (UO-31): > 100 µM (inactive) | GI50 (SR): > 100 µM (inactive) | GI50 (BT-549): > 100 µM (inactive) | GI50 (SF-268): 35.9 µM (inactive) | GI50 (HOP-62): 45.6 µM (inactive) | GI50 (MCF7): > 100 µM (inactive) | GI50 (COLO 205): > 100 µM (inactive) | GI50 (OVCAR-8): > 100 µM (inactive) | GI50 (SN12C): > 100 µM (inactive) | GI50 (MDA-N): > 100 µM (inactive) | GI50 (A549): > 100 µM (inactive) | GI50 (HOP-92): 63.5 µM (inactive) | GI50 (SNB-19): > 100 µM (inactive) | GI50 (K562): 50 µM (inactive) | GI50 (RPMI-8226): > 100 µM (inactive) | GI50 (SF-539): > 100 µM (inactive) | GI50 (NCI-H460): > 100 µM (inactive) | GI50 (EKVX): > 100 µM (inactive) | GI50 (SK-MEL-2): > 100 µM (inactive) | GI50 (LOX IMVI): > 100 µM (inactive) | GI50 (MDA-MB-435): > 100 µM (inactive) | GI50 (CAKI-1): > 100 µM (inactive) | GI50 (HT-29): > 100 µM (inactive) | GI50 (HCT-15): > 100 µM | GI50 (T47D): > 100 µM (inactive) | GI50 (SNB-75): 24.9 µM (inactive) | GI50 (M14): > 100 µM (inactive)

From ChEMBL document CHEMBL1201862, “PubChem BioAssay data set” (2004)
